Measured values as given in patent US6372884B1, “Biologically active compounds and methods of constructing and using the same” (priority 1987, dated 2002).
Ends that are not written are not given here.

Legend:
type 1 virus = tested on: type 1 virus; set-up: species or system Balb/c mice; details: mouse, in vivo
[1] = tested on: neutralizing monoclonal antibody 9BG5; format: binding, mouse
reovirus type 3 [2] = tested on: reovirus type 3; set-up: species or system Balb/c mice; details: mouse, in vivo
reovirus type 3 [3] = tested on: reovirus type 3; set-up: species or system mice; details: mouse, in vivo
reovirus type 3 [4] = tested on: reovirus type 3; set-up: species or system Balb/c mice; details: mouse, in vivo; remark: listed apart in the source
reovirus type 1 [5] = tested on: reovirus type 1; set-up: species or system Balb/c mice; details: mouse, in vivo
type 3 virus = tested on: type 3 virus; set-up: species or system Balb/c mice; details: mouse, in vivo
reovirus type 1 [6] = tested on: reovirus type 1; set-up: species or system Balb/c mice; details: mouse, in vivo; remark: listed apart in the source
recombinant HIV-1 gp120 = details: rabbits immunized with peptide conjugated to KLH, FIG. 21
Experimental: Antisera was obtained and tested for binding to recombinant HIV-1 gp120 peptide-coated radioimmunoassay plates (using 1 μg/ml gp120 at 50 μl/well, in 0.1 M NaHCO3 and incubating overnight at 4° C.). The indicator antibody was ^125I-labelled anti-rabbit immunoglobulin antibody.

[7] = tested on: recombinant glycosylated gp120; details: radiolabelled immunoprecipitations
Experimental: The immunogenicity of B138 was determined by subcutaneous immunization of mice and rabbits.

HIV [8] = assay: Blocking of virus binding by gp120 421-438 peptide
Source text: A molecular model for the region 413-455 (FIG. 19) may be constructed based upon these structural concepts, utilizing a light-chain antibody structure known as REI (Bernstein et al., 1977, Mol. Biol. 112:535-542) as a template for the first and third hypervariable region, in which the cysteines in gp120 at positions 418 and 445 form a disulfide bridge. The cysteines are positionally conserved with respect to each other as in the light chain. The model may be energy optimized using molecular mechanics and dynamics. […] The in vitro biological activity of the 421-438 peptide fragment in modulating CD4-depending cellular function and this fragment's ability to induce an anti-HIV response is as described below.

[…]-infected H9 cells = Flow cytometry: mouse antisera binding to infected H9 cells; format: in vivo; details: subcutaneous immunization of mice
HIV [9] = assay: Infectivity assays with rabbit antisera; details: in vivo
[10] = Size-exclusion chromatography of oxidized peptides (Sephadex G-10); format: physicochemical; details: reduced versus non-reduced peptides
Reo3R = assay: Inhibition of 125I-labelled reovirus type 3 binding to the Reo3R on cells
Experimental: The cells were centrifuged and washed twice in 1% BSA/PBS/0.1% NaN3. 5×10^4 cells or 1.25×10^6 R1.1 cells in 50 μl were distributed in 2% BSA/PBS/NaN3 blocked RIA wells. For peptide studies, 50 μl of inhibitor was added in dH2O to the cells. Following a 30 minute incubation, L cells and ^125I-labelled reovirus type 3 were combined for an additional 30 minutes at 37° C. The cells were spun, washed three times in ice cold PBS, and specific CPM bound was determined as noted above. Percent inhibition of binding was calculated by the formulae above.
To further evaluate the interaction of VLC9C16 peptide with the Reo3R, the peptide was utilized to compete with ^125I-labelled reovirus type 3 for binding to the Reo3R.

[11] = tested on: reovirus type 3 receptor (Reo3R); assay: Flow cytometry: inhibition of 87.92.6 binding to cells; set-up: species or system murine; details: FIG. 29
Experimental: The ability of peptides to inhibit antibody binding to cells was determined by preincubation of the cells with varying amounts of inhibitor (in 100 μl dH2O) for between 30 minutes and 1 hour at 23° C. Cells (either L cells or R1.1 cells) were washed in 1% BSA/PBS/0.1% NaN3, and resuspended at 10^7/ml. 100 μl of cells were then added in 1% BSA/PBS/0.1% NaN3, and the incubation continued for 20-30 minutes. Antibodies (5 or 10 μl were added for an additional 20 minutes at 23° C. Ice cold 1% BSA/PBS/0.1% NaN3, was added, the cells centrifuged and washed prior to counterstaining with a 1:100 dilution of FITC goat anti-mouse Ig (Fisher Scientific) in 1% BSA/PBS/0.1% NaN3. The cells were washed twice and fluorescence intensity determined. Inhibition of binding was calculated as noted above with mean channel number utilized in place of CPM.
To assess the affinity of the cyclic peptides for the reovirus type 3 receptor (Reo3R), they were utilized in a series of assays to inhibit binding of 87.92.6 or control antibodies to specific receptors. […] The inhibition by VLC9C16 peptide was specific as binding of isotype matched monoclonal H013.4 to Thy2 molecules was not inhibited by VLC9C16 peptide (FIG. 30). Thus, VLC9C16 peptide is a specific Reo3R ligand with enhanced affinity compared with its linear analog.

Thy2 molecules = target: T1, Thy2 molecules (Mus musculus, UniProt P01831); assay: Flow cytometry: inhibition of H013.4 binding (specificity); set-up: species or system murine; details: FIG. 30
T1 sequence (P01831 20-131): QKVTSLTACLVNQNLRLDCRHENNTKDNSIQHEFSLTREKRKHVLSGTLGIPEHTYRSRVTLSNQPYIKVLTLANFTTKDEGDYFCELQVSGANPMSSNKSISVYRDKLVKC

9B.G5 [12] = assay: Solid phase RIA: binding of 9B.G5 to peptide coated plates; details: FIG. 24
Experimental: RIA plates (Dynatech Laboratories, Alexandria, Va.) were coated with peptides by evaporation of varying amounts of peptides in distilled water overnight at 37° C. The wells were washed with PBS, blocked with 2% bovine serum albumin (BSA) in PBS with 0.1% NaN3, and washed with PBS. Partially purified 9BG5 [(NH4)2SO4 precipitate] was added at varying dilutions for greater than 1 hour at 37° C. The wells were washed in PBS and 50,000-100,000 counts per minute of ^125I-labelled goat anti-mouse light chain (anti-k & anti-[Sigma] iodinated by chloramine T) was added per well in 1% BSA in PBS for 1-2 hours at 37° C. The wells were decanted, washed extensively, and CPM bound determined. Specific CPM bound was determined by subtracting the CPM bound to uncoated wells from the CPM bound to peptide coated wells.
To assess the optimal conformation for binding of the VL peptide analogs, they were utilized to coat radioimmunoassay (RIA) plates, and 9B.G5 bound by standard RIA procedures.

9B.G5 [13] = assay: Competitive RIA: inhibition of 9B.G5 - 87.92.6 interaction; format: binding
[14] = Rate of loss of sulfhydryls on air oxidation (Ellman determination); format: physicochemical; details: 2 mg/ml in 0.1 M NaHCO3, 37° C., exposed to air, FIG. 23
9B.G5 [15] = assay: Competitive RIA: inhibition of 9B.G5 - reovirus type 3 interaction; format: binding

For “Gln Ser Met --- Trp Ile Gly Ile Val Ser Tyr Ser Gly Ser Gly Leu Asn (WIGIVSYSGSGLN; N-terminal Gln-Ser-Met; printed: Trp Ile Gly Ile Val Ser Tyr Ser Gly Ser Gly Leu Asn) [reo peptide, amino acids 317-332 in the type 3 viral hemagglutinin]”, the “inhibition of plaque formation by type 1 virus by immune serum” value (type 1 virus) was “not type 1”, the “specific binding of 9BG5 to peptide coated wells” value [1] was “Strong reproducible binding” and the “binding of immune serum to type 3 virus coated plates” value (reovirus type 3 [2]) was “significant binding”. The “proliferative response to reovirus type 3 in spleen cells from immunized mice” value (reovirus type 3 [3]) was “type specific proliferative response”, the “neutralization of L-cell lysis by reovirus type 3 by immune serum” value (reovirus type 3 [4]) was “specifically neutralized” and the “neutralization of L-cell lysis by reovirus type 1 by immune serum” value (reovirus type 1 [5]) was “not type 1”. The “inhibition of plaque formation by type 3 virus by immune serum” value (type 3 virus) was “specific inhibition of plaque formation” and the “binding of immune serum to type 1 virus coated plates” value (reovirus type 1 [6]) was “significant binding”.
With KQFINMWQEVGKAMYAPP [B138] the “level of antiserum antibody bound to gp120 coated plates” value (recombinant HIV-1 gp120) was “lower levels of bound antibody”, the “immunoprecipitation of recombinant glycosylated gp120 by rabbit antisera” value [7] was “weakly” and the “blocking of virus binding” value (HIV [8]) was “shown to block virus binding”. For the same substance, the “binding of mouse antisera to infected H9 cells” value ([…]-infected H9 cells) was “preferentially bind” and the “elicitation of neutralizing antibodies (infectivity assays with rabbit sera)” value (HIV [9]) was “could elicit neutralizing antibodies”.
With “KPGKTNKLCIYSGSTCQ (cysteine pairing not given here) [VLC9C16 peptide]” the “molecular form following oxidation by size-exclusion chromatography” value [10] was “remained chiefly as monomers”, the “affinity for the Reo3R by competition with 125I-labelled reovirus type 3” value (Reo3R; FIG. 31) was “higher affinity for the Reo3R than VLC8C16 peptide or VLC10C16 peptide” and the “increase in affinity for the Reo3R compared with linear VL peptide” value (Reo3R; competition with 125I-labelled reovirus type 3) was 40 fold. For the same substance, the “inhibition of binding of 87.92.6 to murine L cells” value ([11]; L cells) was “inhibited binding”, the “inhibition of binding of 87.92.6 to R1.1 thymoma cells” value ([11]; R1.1 cells) was “inhibited binding” and the “inhibition of binding of isotype matched monoclonal H013.4” value (Thy2 molecules) was “not inhibited”. The “binding of 9B.G5 to peptide on solid phase RIA” value (9B.G5 [12]) was “higher than binding to the other cyclic VL peptide analogs”, the “increase in binding affinity for 9B.G5 compared with linear analog of VL peptide” value (9B.G5 [13]; inhibition of 9B.G5 - 87.92.6 interaction, FIG. 26) was 40 fold and the “inhibition of 9B.G5 - 87.92.6 interaction” value (9B.G5 [13]; liquid phase assay, FIGS. 25 and 26) was “higher affinity of interaction compared with the other cyclic peptide variants”. The “rate of loss of sulfhydryls” value [14] was “most rapid loss of sulfhydryls”, the “inhibition of binding of 125I-labelled reovirus type 3 to 9B.G5, compared with other cyclic peptides” value (9B.G5 [15]; FIG. 27) was “higher affinity than the other cyclic peptides” and the “inhibition of binding of 125I-labelled reovirus type 3 to 9B.G5, compared with linear VL and dimeric VLSH peptide” value (9B.G5 [15]; FIG. 28) was “higher affinity than linear VL peptide, and similar affinity on a molar basis as dimeric VLSH peptide”.
